Measurements: patent US20230017045A1, “PYRIDINE AND PYRIMIDINE CARBOXYLATE HERBICIDES AND METHODS OF USE THEREOF” (Dow AgroSciences LLC, priority 2017, published 2023)
Like-named read-outs stand apart in the source and are kept apart here.

Test system: test plant species
Assay: Post-emergent herbicidal activity test (greenhouse, foliar spray, visual growth reduction)
Type: in vivo
Settings: post-emergence, 336 h, 140 g ai/ha
Method: Post-emergent Test: Seeds or nutlets of the desired test plant species were planted in Sun Gro Metro-Mix® 360 planting mixture, which typically has a pH of 6.0 to 6.8 and an organic matter content of about 30 percent, in plastic pots with a surface area of 64 square centimeters. In some aspects, to ensure good germination and healthy plants, a fungicide treatment and/or other chemical or physical treatment was applied. The plants were grown for 7-21 d in a greenhouse with an approximate 15 h photoperiod which was maintained at 23-29° C. during the day and 22-28° C. during the night. Nutrients and water were added on a regular basis and supplemental lighting was provided with overhead metal halide 1000-Watt lamps as necessary. Plants were used for testing when they reached the first or second true leaf stage. A weighed amount, determined by the highest rate to be tested, of each test compound was placed in a 25 mL glass vial and was dissolved in 4 mL of a 97:3 v/v mixture of acetone and DMSO to obtain concentrated stock solutions. […] The concentrated stock solutions obtained were diluted with 20 mL of an aqueous mixture containing acetone, water, isopropyl alcohol, DMSO, […] crop oil concentrate, and X-77 surfactant in a 48.5:39:10:1.5:1.0:0.02 v/v ratio to obtain spray solutions containing the application rate. Compound requirements are based upon a 12 mL application volume at a rate of 187 liters per hectare (L/ha). Formulated compounds were applied to the plant material with an overhead Mandel track sprayer equipped with […] nozzles calibrated to deliver 187 L/ha over an application area of 0.64 square meters at a spray height of 18 inches (43 cm) above the average plant canopy height. Control plants were sprayed in the same manner with the solvent blank. The treated plants and control plants were placed in a greenhouse as described above and watered by subirrigation to prevent wash-off of the test compounds. After 14 d, the condition of the test plants as compared with that of the nontreated and control plants was determined visually and scored on a scale of 0 to 100 percent where 0 corresponds to no injury and 100 corresponds to complete control. In the reporting of the results, Table A: Percent Growth Reduction Conversion Table was used.

[1] = ECHCG: barnyardgrass (Echinochloa crus-galli), 14 days after application, read-out: Visual Growth Reduction (%) 14 Days After Application, ECHCG
[2] = IPOHE: ivy-leaf morning glory (Ipomoea hederacea), 14 days after application, read-out: Visual Growth Reduction (%) 14 Days After Application, IPOHE
[3] = KCHSC: kochia (Bassia scoparia), 14 days after application, read-out: Visual Growth Reduction (%) 14 Days After Application, KCHSC
[4] = ORYSA: rice (Oryza sativa), 14 days after application, read-out: Visual Growth Reduction (%) 14 Days After Application, ORYSA
[5] = SETFA: giant foxtail (Setaria faberi), 14 days after application, read-out: Visual Growth Reduction (%) 14 Days After Application, SETFA
[6] = SORVU: grain sorghum (Sorghum vulgare), 14 days after application, read-out: Visual Growth Reduction (%) 14 Days After Application, SORVU
[7] = STEME: common chickweed (Stellaria media), 14 days after application, read-out: Visual Growth Reduction (%) 14 Days After Application, STEME
[8] = TRZAS: wheat, spring (Triticum aestivum), 14 days after application, read-out: Visual Growth Reduction (%) 14 Days After Application, TRZAS
[9] = blackgrass (Alopecurus myosuroides), 14 Days After Application, read-out: Visual Growth Reduction (%) ALOMY
[10] = crabgrass (Digitaria sanguinalis), 14 Days After Application, read-out: Visual Growth Reduction (%) DIGSA
[11] = lambsquarters (Chenopodium album), 14 Days After Application, read-out: Visual Growth Reduction (%) CHEAL
[12] = redroot pigweed (Amaranthus retroflexus), 14 Days After Application, read-out: Visual Growth Reduction (%) AMARE
[13] = wild oat (Avena fatua), 14 Days After Application, read-out: Visual Growth Reduction (%) AVEFA
[14] = yellow nutsedge (Cyperus esculentus), 14 Days After Application, read-out: Visual Growth Reduction (%) CYPES
[15] = ALOMY: blackgrass (Alopecurus myosuroides), 14 days after application, read-out: Visual Growth Reduction (%) 14 Days After Application, ALOMY
[16] = AMARE: redroot pigweed (Amaranthus retroflexus), 14 days after application, read-out: Visual Growth Reduction (%) 14 Days After Application, AMARE
[17] = AVEFA: wild oat (Avena fatua), 14 days after application, read-out: Visual Growth Reduction (%) 14 Days After Application, AVEFA
[18] = CHEAL: lambsquarters (Chenopodium album), 14 days after application, read-out: Visual Growth Reduction (%) 14 Days After Application, CHEAL
[19] = CIRAR: canada thistle (Cirsium arvense), 14 days after application, read-out: Visual Growth Reduction (%) 14 Days After Application, CIRAR
[20] = CYPES: yellow nutsedge (Cyperus esculentus), 14 days after application, read-out: Visual Growth Reduction (%) 14 Days After Application, CYPES
[21] = DIGSA: crabgrass (Digitaria sanguinalis), 14 days after application, read-out: Visual Growth Reduction (%) 14 Days After Application, DIGSA

Compound | pest or weed control at 140 g/ha [1] | pest or weed control at 140 g/ha [2] | pest or weed control at 140 g/ha [3] | pest or weed control at 140 g/ha [4] | pest or weed control at 140 g/ha [5] | pest or weed control at 140 g/ha [6] | pest or weed control at 140 g/ha [7] | pest or weed control at 140 g/ha [8] | pest or weed control at 140 g/ha [9] | pest or weed control at 140 g/ha [10] | pest or weed control at 140 g/ha [11] | pest or weed control at 140 g/ha [12] | pest or weed control at 140 g/ha [13] | pest or weed control at 140 g/ha [14] | pest or weed control at 140 g/ha [15] | pest or weed control at 140 g/ha [16] | pest or weed control at 140 g/ha [17] | pest or weed control at 140 g/ha [18] | pest or weed control at 140 g/ha [19] | pest or weed control at 140 g/ha [20] | also measured
COC(=O)c1nc(-c2cc(F)c(C(F)(F)F)cc2F)c(F)cc1Cl [F324, Methyl 3-chloro-6-(2,5-difluoro-4-(trifluoromethyl)phenyl)-5-fluoropicolinate] | 0 to 29% | 95 to 100% | 85 to 94% | 0 to 29% | 60 to 74% | 75 to 84% | 0 to 29% | 45 to 59% | 30 to 44% | 95 to 100% | 85 to 94% | 95 to 100% | 30 to 44% | 60 to 74% |  |  |  |  |  |  | 
COC(=O)c1nc(-c2ncc(Cl)c(C(F)F)c2Cl)ccc1Cl [F184] | 85 to 94% | 95 to 100% | 0 to 29% | 30 to 44% | 85 to 94% | 95 to 100% | 0 to 29% | 30 to 44% |  |  |  |  |  |  | 0 to 29% | 60 to 74% | 0 to 29% | 60 to 74% | 45 to 59% | 0 to 29% | pest or weed control at 140 g/ha [21]: 60 to 74%
O=C(O)c1nc(-c2cc3c(cc2Cl)OC(F)(F)O3)c(Cl)cc1Cl [F182, 3,5-Dichloro-6-(6-chloro-2,2-difluorobenzo[d][1,3]dioxol-5-yl)picolinic acid] | 0 to 29% | 95 to 100% | 45 to 59% | 0 to 29% | 60 to 74% | 85 to 94% | 0 to 29% | 0 to 29% |  |  |  |  |  |  | 0 to 29% | 75 to 84% | 0 to 29% | 85 to 94% | 0 to 29% | 30 to 44% | pest or weed control at 140 g/ha [21]: 60 to 74%
C=Cc1cc(-c2nc(C(=O)O)c(Cl)cc2F)c(Cl)cc1C(F)(F)F [F350, 3-Chloro-6-(2-chloro-4-(trifluoromethyl)-5-vinylphenyl)-5-fluoropicolinic acid] | 0 to 29% | 85 to 94% | 85 to 94% | 0 to 29% | 0 to 29% | 0 to 29% | 0 to 29% | 0 to 29% | 0 to 29% | 30 to 44% | 60 to 74% | 30 to 44% | 0 to 29% | 0 to 29% |  |  |  |  |  |  | 
